Assay results: PubChem BioAssay AID2046 (NMMLSC, 2009)
Calls of active or inactive are those of the source. No rule for the calls is given here.

Target: Ras-related protein Rab-2A (Canis lupus familiaris) (UniProt P61105)
Assay: Rab2 wildtype GTP-binding inhibitors, SAR follow-up, biochemical, additional analogs, bead-based flow cytometry, multiplex (AID 2046)
Details: Rab2 wt; for Ki: measured here: Ki from fitted EC50

Sequence of Ras-related protein Rab-2A (Canis lupus familiaris) (P61105 whole entry, looked up): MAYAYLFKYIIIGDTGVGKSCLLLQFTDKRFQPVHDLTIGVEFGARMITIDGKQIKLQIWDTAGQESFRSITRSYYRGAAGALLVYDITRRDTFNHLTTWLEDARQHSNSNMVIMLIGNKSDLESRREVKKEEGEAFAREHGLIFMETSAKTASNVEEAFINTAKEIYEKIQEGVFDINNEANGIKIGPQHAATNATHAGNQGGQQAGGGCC

| SMILES | EC50 | Ki [µM] |
| --- | --- | --- |
| O=C1C(c2c(O)[nH]c3ccc(Br)cc23)=Nc2ccccc21 | inactive |  |
| O=C1N=c2ccccc2=C1c1[nH]c(=S)[nH]c1O | inactive |  |
| O=C1N=c2ccccc2=C1c1[nH]c(=O)[nH]c1O | inactive |  |
| COc1ccc2cc([C@@H](C)C(=O)O)ccc2c1 |  | 0.11 |
| O=Nc1c(-c2c(O)[nH]c3ccccc23)[nH]c2ccccc12 | inactive |  |
| O=Nc1c(-c2c(O)[nH]c3ccc(Br)cc23)[nH]c2ccccc12 | inactive | 4.15 |
| O=C1C(c2c(O)[nH]c3c(Br)cccc23)=Nc2ccccc21 | inactive |  |
| O=Nc1c(-c2c(O)[nH]c3c(F)cccc23)[nH]c2ccccc12 | inactive |  |
| O=C1C(c2c(O)[nH]c3ccccc23)=Nc2ccccc21 | inactive |  |
| O=C1C(c2c(O)[nH]c3c(Cl)cccc23)=Nc2ccccc21 | inactive |  |
| O=Nc1c(-c2c(O)[nH]c3c(Cl)cccc23)[nH]c2ccccc12 | inactive |  |
| O=Nc1c(-c2c(O)[nH]c3c(Br)cccc23)[nH]c2ccccc12 | inactive | 4.19 |
| O=C1C(c2c(O)[nH]c3c(F)cccc23)=Nc2ccccc21 | inactive |  |
